Data as given in patent US9896423B2, “Deuterium substituted 1-[2-(2,4-dimethyl-phenylsulfanyl)-phenyl]piperazine compound or derivatives thereof, and pharmaceutical composition and use thereof” (Jiangsu Jibeier Pharmaceutical Co. Ltd., priority 2014, dated 2018).
Values joined by “and” are separate entries in the source; they are usually repeats but may differ in a detail not shown here. Equal values may be shown once. Read-outs that look alike come from different tables or passages of the source.

Assay: Pharmacokinetic test in rats, intravenous injection
Type: in vivo, SD rats
Conditions: for concentration at 0.25 h / concentration at 0.5 h / concentration at 1 h / concentration at 2 h / concentration at 3 h: Sprague-Dawley, intravenous, 2 mg/kg iv
Procedure: The preferred compound of the present disclosure was assessed in rats for its pharmacokinetic profile.
SD rats, male and female, weighing 150 to 250 g
Mobile phase: 10 mM ammonium formate aqueous solution:methanol=15:85
The ionization source was electrospray ionization source. The detection mode was positive mode. Multiple reaction monitoring (MRM) was used as the scanning mode. The ion reaction for the quantitative analysis was the following: m/z was 305.2\150.0 for XX, and 256.1\167.1 for diphenhydramine (the internal standard).
Four male SD rats were taken. The dosage was calculated as 5 mL/kg body weight and 2 mg/kg. XX or YY was dissolved in DMSO (3% of a total volume) and castor oil (3% of the total volume) was added to the solution, followed by agitating with a vortex mixer. Subsequently, saline was added to the mixture to the total volume to afford the intravenous injection for the rats. The injections were intravenously administered to four male SD rats. Blood from the rats' orbits was collected 3 min, 8 min, 15 min, 30 min, 1 hr, 2 hr, 3 hr, 4 hr, 6 hr, 9 hr, 12 hr and 24 hr later after the injection, respectively.
After the blood collection, the tubes were immediately gently turned upside down at least five times to ensure sufficient mixing, and placed on ice. Heparin was added for anticoagulation. The samples were centrifuged at 8000 rpm for 5 min to separate serum from erythrocyte. The serum was transferred with a pipettor to 2 mL polypropylene (PP) tubes, which were marked with the name of the compound and the time points, and stored in a refrigerator at −40° C. before LC-MS analysis. Samples with high concentrations were diluted with rat blank plasma.
2.5 μL of Meth-H2O and 5 μL of the internal standard solution (20 ng/mL, IS) were added to 50 μL of the plasma. Subsequently, 150 μL of methanol was added to the mixture to precipitate protein and the samples were then centrifuged at 13000 rpm for 5 min. The upper organic phase was taken out, filtrated with a 0.22 μM microporous membrane, and 2 μL of the sample was injected for the LC-MS analysis.

[1] = male, rat, plasma, 2 mg/kg, individual rats, read-out: Concentrations in Plasma of Rats after Intravenous Injection
[2] = male, rat, plasma, 2 mg/kg, mean, read-out: Concentrations in Plasma of Rats after Intravenous Injection, Mean ± SD
[3] = rats, iv 2 mg/kg, individual rats, 2 mg/kg

**Q.** Which AUC(0-inf) (male, SD, rat, plasma, iv, 2 mg/kg, rats, iv 2 mg/kg, XX n = 4, YY n = 3, read-out: AUC0-∞, Mean ± SD) does the source give for `Cc1ccc(Sc2ccccc2N2CCNCC2)c(C)c1` [YY, 1-[2-(2,4-dimethyl-phenylsulfanyl)-phenyl]piperazine] here?
**A.** The AUC(0-inf) was 654 ± 23.9 ng·h/mL.

**Q.** And the Cmax (male, SD, rat, plasma, iv, 2 mg/kg, rats, iv 2 mg/kg, XX n = 4, YY n = 3, read-out: Cmax, Mean ± SD)?
**A.** The Cmax was 214 ± 38.9 ng/mL.

**Q.** What about the MRT inf (male, SD, rat, plasma, iv, 2 mg/kg, rats, iv 2 mg/kg, XX n = 4, YY n = 3, read-out: MRT0-∞, Mean ± SD) of the same compound?
**A.** The MRT inf was 6.42 ± 0.19 h.

**Q.** What about the Vd (male, SD, rat, plasma, iv, 2 mg/kg, rats, iv 2 mg/kg, XX n = 4, YY n = 3, read-out: Vz, Mean ± SD) of the same compound?
**A.** Its Vd is 26.6 ± 0.52 L/kg.

**Q.** What about the half-life (male, SD, rat, plasma, iv, 2 mg/kg, rats, iv 2 mg/kg, XX n = 4, YY n = 3, read-out: t1/2, Mean ± SD (converted)) of the same compound?
**A.** Its half-life is 6.03 ± 0.27 h.

**Q.** What about the AUC(0-t) (male, SD, rat, plasma, iv, 2 mg/kg, rats, iv 2 mg/kg, individual rats 1-3 (Table 11), read-out: AUC0-t) of the same compound?
**A.** The AUC(0-t) was 594 ng·h/mL.

**Q.** And the AUC(0-inf) (male, SD, rat, plasma, iv, 2 mg/kg, rats, iv 2 mg/kg, individual rats, read-out: AUC0-∞)?
**A.** The AUC(0-inf) was 628 ng·h/mL.

**Q.** What about the Cmax (male, SD, rat, plasma, iv, 2 mg/kg, rats, iv 2 mg/kg, individual rats, read-out: Cmax) of the same compound?
**A.** The Cmax was 225 ng/mL.

**Q.** And the MRT inf (male, SD, rat, plasma, iv, 2 mg/kg, rats, iv 2 mg/kg, individual rats, read-out: MRT0-∞)?
**A.** Its MRT inf is 6.56 h.

**Q.** And the Vd (male, SD, rat, plasma, iv, 2 mg/kg, rats, iv 2 mg/kg, individual rats, read-out: Vz)?
**A.** Its Vd is 26.3 L/kg.

**Q.** And the half-life (male, SD, rat, plasma, iv, 2 mg/kg, rats, iv 2 mg/kg, individual rats, read-out: t1/2 (converted))?
**A.** The half-life was 5.72 h.

**Q.** And the AUC(0-t) (male, SD, rat, plasma, iv, 2 mg/kg, rats, iv 2 mg/kg, n = 3 (Table 11), read-out: AUC0-t, Mean ± SD)?
**A.** The AUC(0-t) was 619 ± 22.2 ng·h/mL.

**Q.** And the concentration at 0.25 h [1]?
**A.** The concentration at 0.25 h was 78.1 ng/mL.

**Q.** And the concentration at 0.25 h [2]?
**A.** The concentration at 0.25 h was 137 ± 6.05 ng/mL.

**Q.** What about the concentration at 0.5 h [1] of the same compound?
**A.** Its concentration at 0.5 h is 76.6 ng/mL.

**Q.** What about the concentration at 0.5 h [2] of the same compound?
**A.** The concentration at 0.5 h was 124 ± 13 ng/mL.

**Q.** And the concentration at 1 h [1]?
**A.** Its concentration at 1 h is 72.2 ng/mL.

**Q.** What about the concentration at 1 h [2] of the same compound?
**A.** The concentration at 1 h was 94.2 ± 6.06 ng/mL.

**Q.** And the concentration at 2 h [1]?
**A.** The concentration at 2 h was 60.7 ng/mL.

**Q.** And the concentration at 2 h [2]?
**A.** The concentration at 2 h was 86.4 ± 16.8 ng/mL.

**Q.** What about the concentration at 3 h [1] of the same compound?
**A.** Its concentration at 3 h is 49.6 ng/mL.

**Q.** And the concentration at 3 h [2]?
**A.** The concentration at 3 h was 67 ± 10.2 ng/mL.

**Q.** And the “CL, Mean ± SD” value (rats, iv 2 mg/kg, XX n = 4, YY n = 3)?
**A.** Its value is 3.06 ± 0.11 L/h/k.

**Q.** What about the AUC(0-t) (rats, iv 2 mg/kg, individual rats 1-3 (Table 11), 2 mg/kg) of the same compound?
**A.** The AUC(0-t) was 637.9 ng·h/mL and 624.3 ng·h/mL.

**Q.** What about the “AUC0-∞” value [3] of the same compound?
**A.** The value was 674.6 ng·h/mL and 660.5 ng·h/mL.

**Q.** What about the CL [3] of the same compound?
**A.** Its CL is 3.19 L/h/k and 2.97 L/h/k and 3.03 L/h/k.

**Q.** What about the Cmax [3] of the same compound?
**A.** Its Cmax is 246.0 ng/mL and 170.6 ng/mL.

**Q.** What about the “MRT0-∞” value [3] of the same compound?
**A.** The value was 6.20 h and 6.50 h.

**Q.** What about the Vz [3] of the same compound?
**A.** The Vz was 27.2 L/kg.

**Q.** What about the t1/2 [3] of the same compound?
**A.** Its t1/2 is 6.15 h and 6.22 h.
